Assay results published in US6737383B1, “Herbicidal oxadiazolidines” (priority 1999, dated 2004).

What was measured:
[1] = tested on: bamyardgrass; assay: Test B flood test barnyardgrass; type: in vivo, Echinochloa crus-galli
Outline: (§1)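 Flood test on plants grown to the 2-leaf stage; treated plants kept in greenhouse twelve to sixteen days, then visually rated against controls on a 0 (no effect) to 10 (complete control) scale.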

[2] = tested on: rape; assay: Test B pre/postemergence rape; type: in vivo, Brassica napus
Outline: (§2)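 Response is a visual 0-to-10 score relative to untreated plants, where 0 means no effect and 10 means complete control, taken twelve to sixteen days after application. Treatments went onto soil at planting and onto foliage of 1- to 4-leaf plants, using a surfactant-containing non-phytotoxic solvent.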

[3] = tested on: morningglory; assay: Test B pre/postemergence morningglory; type: in vivo, Ipomoea hederacea
Outline: as §2

[4] = tested on: smallflower flatsedge; assay: Test B flood test smallflower flatsedge; type: in vivo, Cyperus difformis
Outline: as §1

[5] = Rate 62 g/ha, flood test species, Pre-emergence, visual evaluation after twelve to sixteen days
[6] = Rate 125 g/ha, under heading Pre-emergence, flood test species, visual evaluation after twelve to sixteen days
[7] = Rate 250 g/ha, Pre-emergence, flood-test species, scale 0 to 10, 0 is no effect, 10 is complete control
[8] = Rate 500 g/ha, Pre-emergence, flood test species, scale 0 to 10 (0 no effect, 10 complete control)
[9] = Postemergence, Rate 250 g/ha, scale 0 to 10, 0 is no effect, 10 is complete control
[10] = Preemergence, Rate 62 g/ha, scale 0 to 10 (0 no effect, 10 complete control)
[11] = Preemergence, Rate 125 g/ha, scale of 0 to 10 where 0 is no effect and 10 is complete control
[12] = Preemergence, Rate 250 g/ha, scale 0 to 10, 0 is no effect, 10 is complete control
[13] = Preemergence, Rate 500 g/ha, scale 0 to 10, 0 is no effect, 10 is complete control
[14] = Postemergence (flood test species), Rate 125 g/ha, scale of 0 to 10 where 0 is no effect and 10 is complete control
[15] = Rate 62 g/ha, Postemergence section, flood test species, scale of 0 to 10 where 0 is no effect and 10 is complete control
[16] = Rate 250 g/ha, Postemergence (flood test), scale 0 to 10, 0 is no effect, 10 is complete control
[17] = Rate 500 g/ha, listed under Postemergence (flood test species), scale 0 to 10
[18] = Postemergence, Rate 125 g/ha, scale of 0 to 10 where 0 is no effect and 10 is complete control
[19] = Preemergence, Rate 62 g/ha, scale of 0 to 10 where 0 is no effect and 10 is complete control
[20] = Preemergence, Rate 125 g/ha, 0 is no effect, 10 is complete control
[21] = Preemergence, Rate 500 g/ha, scale 0 to 10 (0 no effect, 10 complete control)
[22] = Rate 62 g/ha, Postemergence, scale of 0 to 10 where 0 is no effect and 10 is complete control
[23] = Rate 250 g/ha, Postemergence, scale 0 to 10, 0 is no effect, 10 is complete control
[24] = Rate 500 g/ha, Postemergence, scale 0 to 10
[25] = Postemergence, Rate 62 g/ha, scale 0 to 10, 0 is no effect, 10 is complete control
[26] = Rate 125 g/ha, Postemergence section (flood test species), scale 0 to 10, 0 no effect, 10 complete control
[27] = flood test, listed under Postemergence, Rate 250 g/ha, scale 0 to 10, 0 no effect, 10 complete control
[28] = Postemergence, Rate 250 g/ha, scale 0 to 10, 0 no effect, 10 complete control
[29] = Preemergence, Rate 62 g/ha, scale 0 to 10, 0 is no effect, 10 is complete control
[30] = Preemergence, Rate 125 g/ha, scale 0 to 10 (0 no effect, 10 complete control)
[31] = Preemergence, Rate 250 g/ha, scale of 0 to 10 where 0 is no effect and 10 is complete control
[32] = Preemergence, Rate 500 g/ha, scale 0 (no effect) to 10 (complete control)
[33] = Rate 125 g/ha, Postemergence, scale 0 to 10, 0 no effect, 10 complete control
[34] = Rate 500 g/ha, Postemergence, 0 to 10 scale (0 no effect, 10 complete control)

Cc1nc(Cl)sc1C(C)n1c(=O)on(C(=O)N(c2ccccc2)C(C)C)c1=O (stereo not drawn) [Compound 407]
Plant response rating, Barnyardgrass (0 to 10 scale, 0 is no effect, 10 is complete control) [1, 5]: 0
Barnyardgrass plant response rating (0 to 10 scale, 0 is no effect, 10 is complete control) [1, 6]: 0
Barnyardgrass plant response rating [1, 7]: 0
Barnyardgrass plant response rating [1, 8]: 0
Plant response rating, Rape [2, 9]: 0
Plant response rating, Rape [2, 10]: 0
Plant response rating, Rape [2, 11]: 0
Rape plant response rating [2, 12]: 0
Rape plant response rating [2, 13]: 0
Plant response rating, Morningglory [3, 9]: 10
Morningglory plant response rating ([3]; Postemergence, Rate 500 g/ha, scale of 0 to 10 where 0 is no effect and 10 is complete control): 10
Plant response rating, Morningglory [3, 10]: 0
Plant response rating, Morningglory [3, 11]: 0
Morningglory plant response rating [3, 12]: 0
Morningglory plant response rating [3, 13]: 0
Plant response rating, S. Flatsedge (0 to 10 scale, 0 is no effect, 10 is complete control) [4, 5]: 0
S. Flatsedge plant response rating (0 to 10 scale, 0 is no effect, 10 is complete control) [4, 6]: 0
S. Flatsedge plant response rating [4, 7]: 0
S. Flatsedge plant response rating [4, 8]: 0

CC(C)N(C(=O)n1oc(=O)[nH]c1=O)c1ccc(F)cc1 [Compound 164]
Barnyardgrass plant response rating [1, 14]: 0
Barnyardgrass plant response rating [1, 15]: 0
Plant response rating, Barnyardgrass [1, 16]: 0
Barnyardgrass plant response rating [1, 17]: 0
Rape plant response rating [2, 18]: 0
Rape plant response rating [2, 19]: 0
Rape plant response rating (0 to 10 scale) [2, 20]: 0
Rape plant response rating [2, 12]: 0
Rape plant response rating [2, 21]: 0
Rape plant response rating [2, 22]: 0
Plant response rating, Rape [2, 23]: 0
Rape plant response rating [2, 24]: 0
Morningglory plant response rating [3, 18]: 0
Morningglory plant response rating [3, 19]: 0
Morningglory plant response rating (0 to 10 scale) [3, 20]: 0
Morningglory plant response rating [3, 12]: 0
Morningglory plant response rating [3, 21]: 0
Morningglory plant response rating [3, 22]: 0
Plant response rating, Morningglory [3, 23]: 0
Morningglory plant response rating [3, 24]: 2
S. Flatsedge plant response rating [4, 14]: 0
S. Flatsedge plant response rating [4, 15]: 0
Plant response rating, S. Flatsedge [4, 16]: 0
S. Flatsedge plant response rating [4, 17]: 0

CC(C)N(C(=O)n1oc(=O)n(-c2ccc(Cl)cc2C(F)(F)F)c1=O)c1ccc(F)cc1 [Compound 20]
Barnyardgrass plant response rating [1, 25]: 0
Barnyardgrass plant response rating [1, 26]: 0
Barnyardgrass plant response rating ([1]; Rate 500 g/ha, Postemergence section of Table B, 0 to 10 scale (0 no effect, 10 complete control)): 0
Barnyardgrass plant response rating [1, 27]: 0
Rape plant response rating [2, 25]: 0
Rape plant response rating [2, 28]: 0
Plant response rating, Rape [2, 29]: 0
Plant response rating, Rape [2, 30]: 0
Plant response rating, Rape [2, 31]: 0
Rape plant response rating [2, 32]: 0
Rape plant response rating [2, 33]: 0
Rape plant response rating [2, 34]: 0
Morningglory plant response rating [3, 25]: 4
Morningglory plant response rating [3, 28]: 7
Plant response rating, Morningglory [3, 29]: 0
Plant response rating, Morningglory [3, 30]: 0
Plant response rating, Morningglory [3, 31]: 0
Morningglory plant response rating [3, 32]: 0
Morningglory plant response rating [3, 33]: 7
Morningglory plant response rating [3, 34]: 8
S. Flatsedge plant response rating [4, 25]: 0
S. Flatsedge plant response rating [4, 26]: 0
S. Flatsedge plant response rating [4, 27]: 0
